The numbers were not newly measured in patent US8071794B2, “Long wavelength thiol-reactive fluorophores” (Becton, Dickinson and Company, priority 2004, dated 2011), which cites them from elsewhere.

For the data set the following is noted: changing environment from methanol (polar protic) to toluene (non-polar); cited from earlier work.

On to `CN(C)c1ccc(C2=C(O)C(c3ccc(N(C)C)cc3)=C2O)cc1` [squaraine nucleus III], for which the “increase in fluorescence quantum yield” value was 20 fold.
